Assay results: paper PMC3368886, “ATPase Cycle and DNA Unwinding Kinetics of RecG Helicase” (PLoS ONE, 2012)

How the values were obtained:
[1] = molecular target: T1, RecG (Thermotoga maritima, UniProt Q9WY48); assay: Steady-state ATPase rate measurements with phosphate biosensor MDCC-PBP; type: biochemical; settings: for K m / k cat: 20°C, 10 nM RecG, 500 nM DNA junction (A40:B40)
T1 construct: made in house
T1 sequence (Q9WY48 1-780): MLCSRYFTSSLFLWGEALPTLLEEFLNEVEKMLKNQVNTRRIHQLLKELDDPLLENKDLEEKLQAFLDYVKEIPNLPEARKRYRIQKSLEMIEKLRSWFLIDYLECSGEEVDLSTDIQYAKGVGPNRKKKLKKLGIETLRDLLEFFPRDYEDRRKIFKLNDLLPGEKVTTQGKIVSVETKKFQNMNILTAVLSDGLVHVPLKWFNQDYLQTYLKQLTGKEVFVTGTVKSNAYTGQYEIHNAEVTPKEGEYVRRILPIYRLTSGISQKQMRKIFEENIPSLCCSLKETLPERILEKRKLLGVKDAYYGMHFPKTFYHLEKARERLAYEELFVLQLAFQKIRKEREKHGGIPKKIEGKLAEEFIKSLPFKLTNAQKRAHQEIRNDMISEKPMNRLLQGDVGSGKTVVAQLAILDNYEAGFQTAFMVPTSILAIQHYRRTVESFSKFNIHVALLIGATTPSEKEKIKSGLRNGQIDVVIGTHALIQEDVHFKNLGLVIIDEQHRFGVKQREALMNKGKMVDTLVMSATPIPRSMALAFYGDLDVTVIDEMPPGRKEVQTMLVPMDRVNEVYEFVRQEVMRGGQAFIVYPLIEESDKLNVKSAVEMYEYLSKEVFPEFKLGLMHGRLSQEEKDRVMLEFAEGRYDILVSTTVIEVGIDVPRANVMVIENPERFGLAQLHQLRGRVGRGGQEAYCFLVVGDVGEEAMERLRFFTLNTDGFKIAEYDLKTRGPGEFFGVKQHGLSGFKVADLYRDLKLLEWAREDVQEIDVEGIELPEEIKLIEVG
Source text: Steady-state measurements were made to gain an overall assessment of the reaction and the affinities of various nucleotides before investigating the individual steps in the ATPase cycle. A two-strand DNA junction, which contains two 20-bp regions of complementary and non-complementary sequences (A40:B40 Figure 1 and Table S1), was used in all these measurements. This forms a Y-shape structure and RecG translocates one single-stranded arm, but then remains bound to the end of the junction still hydrolyzing ATP [10].
All reactions with RecG and DNA were done at 20°C in a buffer containing 50 mM Tris⋅acetate (pH 8.0), 30 mM potassium acetate, 3 mM magnesium acetate and 1 mM DTT. ATPase measurements using MDCC-PBP were taken in the presence of a Pi mop, as described above. Steady-state ATPase measurements were taken in a solution (60 µl) at 20°C, containing 10 nM RecG, 500 nM DNA junction (A40∶B40, see Table S1) and 10 µM MDCC-PBP with varying nucleotide concentrations as substrate or inhibitor [23].

[2] = molecular target: T1, RecG; assay: Phosphate-water oxygen exchange during hydrolysis; type: biochemical; settings: for k +3 /k −2: γ-18O3 nucleotide, 25°C
Source text: In order to get information about the reverse of cleavage step 2 (scheme in Figure 2A), phosphate-water oxygen exchange measurements were done using (γ-^18O3)mantATP. Intermediate exchange can occur between terminal oxygens of the nucleotide and water during hydrolysis, giving information about the value of k +3 /k −2, as previously described. In this case, (γ-^18O3)mantATP was used as substrate and partial hydrolysis occurred in the presence of RecG⋅DNA, as described in the materials and methods section. The Pi had very similar distribution of oxygen-18 as with (γ-^18O3)mantATP, consistent with essentially little reversal of the cleavage step (k +3 /k −2≥9). This is consistent with a rapid release of Pi.
For intermediate exchange during ATP hydrolysis, 0.5 µM RecG and 1 mM (γ-^18O3)ATP or (γ-^18O3)mantATP were incubated for 10 min (+1 µM DNA A40∶B40, Table S1) or 20 min (- DNA) at 25°C in a volume of 100 µl in the buffer described below. Pi was analyzed for distribution of different ^18O-labeled species on a mass spectrometer as described previously, [37] except that during purification, the ^18O-labeled Pi was detected by MDCC-PBP, rather than radioactive tracers.
Supplementary file pone.0038270.s005.pdf: Table S2 Oxygen exchange during ATP or mantATP hydrolysis by RecG: distributions of oxygen-18 in the Pi product. Experiments were performed as described in Materials and Methods. The data were corrected for isotopic enrichment of the starting nucleotide, 93% for (γ-^18O3)mantATP and 98% for (γ-^18O3) ATP. […] Each distribution is the average of three mass spectral assays. Thus the distributions are for the product Pi as though the starting enrichment was 100%. In all cases there was very little oxygen exchange as shown by the large peak of (^18O3)Pi, in which all three γ-oxygens of ATP are retained. The distributions were then used to compute the ratio of rate constants for Pi release (k +3) and on-enzyme ATP resynthesis (k −2) as in Figure 2 [14], [37].

Row | Structure (SMILES) | K m [1] | k cat [1] | (18O1)Pi in product Pi ([2]; DNA present) | (18O2)Pi in product Pi ([2]; DNA present) | (18O3)Pi in product Pi ([2]; DNA present) | k +3 /k −2 ([2]; DNA present (A40∶B40)) | (18O1)Pi in product Pi ([2]; no DNA) | (18O2)Pi in product Pi ([2]; no DNA) | (18O3)Pi in product Pi ([2]; no DNA) | k +3 /k −2 ([2]; no DNA) | lower ATPase activity than ATP ([1]; mantATP vs ATP)
1 | Nc1ncnc2c1ncn2[C@@H]1O[C@H](COP(=O)(O)OP(=O)(O)OP(=O)(O)O)[C@@H](O)[C@H]1O [ATP] | 9 (±2) µM | 8.3 (±1.7) s^−1 | 2.8% | 2.3% | 94.9% | 18 | 6.1% | 4.0% | 89.9% | 9.0 | –
2 | CNc1ccccc1C(=O)O[C@H]1[C@@H](O)[C@H](n2cnc3c(N)ncnc32)O[C@@H]1COP(=O)(O)OP(=O)(O)OP(=O)(O)O [mantATP, 2′(3′)-O-(N-methylanthraniloyl)ATP] | 1.9 (±0.6) µM | 0.3 (±0.1) s^−1 | 0.4% | 7.5% | 92.1% | 8.7 | 0.4% | 7.0% | 92.6% | 9.5 | 30 fold
